Laboratory results taken from patent publication US7405238B2, “Pharmacological inducement of the fed mode for enhanced drug administration to the stomach” (priority 1999, dated 2008).
“And” between values parts separate entries of the source, which are not always exact repeats. Equal entries are not always repeated. Peptide text beside a SMILES is read from it.

Legend:
dogs = details: administered in excess of 1 g; cited from earlier work
male beagles = test: Retention time of BaSO4 swelling tablet in stomach, dogs, Example 1; type: in vivo, dog; details: 7.94 × 19.05 mm BaSO4 tablet, mean of four dogs
Experimental: (§1) Four dogs, all male beagles ranging in age from 10 months to 21 months and weighing from 6 kg to 10 kg each, were housed individually and each was fed a 1:1 (weight ratio) wet:dry mixture of food weighing 300 g once daily at 3:00 p.m. Water was provided ad libitum. The dogs were fasted for 6-8 hours overnight, preceded by the removal of feces and any uneaten food.
(§2) Test formulations were administered in various regimens. In some of the tests, the dogs were given an immediate release (IR) regimen in the form of a single gelatin capsule containing a test species in a selected amount. A simulated controlled release (SCR) regimen was used in other tests by administering a gelatin capsule containing a test species in a selected amount every half hour. A third regimen was a controlled release (CR) regimen, in which the test species was incorporated in a compressed tablet of POLYOX 303 and magnesium stearate. […] The barium tablets were visualized every thirty minutes by fluoroscopy until they left the stomach. The time of the last observation of the 800 mg tablet in the stomach was recorded as the retention time. The test group also included a negative control using a fasted dog with no test formulations administered, and a positive control using a dog that was fed a standard 50 g meal but no test formulations.
The test results in terms of the retention times in hours are shown in Table I, which lists the means of the results observed among the four dogs as well as the range among the dogs for each test.

female beagles [1] = test: Retention time of BaSO4 swelling tablet in stomach, dogs fasted 24 hours, Example 3; type: in vivo, dog; details: mean of five dogs fasted 24 hours
Experimental: as §2
(§3) Further tests were performed on a second group of dogs, consisting of five female beagles one year in age and weighing 5-7 kg each. The test protocols were the same as those in Example 1 except that the dogs were fasted for 24 hours before each test, and the test results are listed in Table II below, which lists the mean of the results observed among the five dogs as well as the range among the dogs for each test.
Further tests were performed on the second group of dogs, consisting of five female beagles one year in age and weighing 5-7 kg each. The test protocols were the same as those in Example 2, except that the controls were replaced by a negative control consisting of AVICEL (microcrystalline cellulose, FMC Corporation, Philadelphia, Pa., USA), administered as a simulated controlled release at 10 mg every half hour. The test results are listed in Table III below, which lists the mean of the results observed among the five dogs as well as the range among the dogs for each test.

female beagles [2] = test: Retention time of BaSO4 swelling tablet in stomach, dogs fasted 24 hours, Example 2; type: in vivo, dog; details: mean of five dogs fasted 24 hours
Experimental: as §1, §2, §3

N=C(N)NCCC[C@H](N)C(=O)O [L-Arginine]
effect on gastric emptying (dogs): slowed gastric emptying | Retention Time (h) Mean (male beagles; 300 mg, CR (POLYOX 303 tablet)): 3.6 ± 1.6 h | Retention Time (h) Mean (male beagles; 400 mg, IR): 1.6 ± 0.2 h

β-Casomorphin: peptide released from β-casein; bovine sequence Tyr-Pro-Phe-Pro-Gly-Pro-Ile; species tested not stated (YPFPGPI; printed: Tyr-Pro-Phe-Pro-Gly-Pro-Ile)
Retention Time (h) Mean (male beagles; 25 mg, IR): 2.6 ± 1.1 h | Retention Time (h) Mean (female beagles [1]; 10 mg, IR): 3.5 ± 2.1 h

glycine
effect on gastric emptying (dogs): slowed gastric emptying

CN(C)C(=O)C(CCN1CCC(O)(c2ccc(Cl)cc2)CC1)(c1ccccc1)c1ccccc1 [Loperamide, 4-(p-chlorophenyl)-4-hydroxy-N,N-dimethyl-α,α-diphenyl-1-piperidinebutyramide, reference compound]
Retention Time (h) Mean (male beagles; 0.1 mg, IR): 2.5 ± 1.3 h

OC[C@@H](O)[C@H](O)[C@@H](O)CO [Xylitol, CH2OH—(CHOH)3—CH2OH]
Retention Time (h) Mean (male beagles; 600 mg, IR): 3.1 ± 1.5 h

O=C(O)CCCCC1CCSS1 (stereo not drawn) [α-Lipoic acid]
Retention Time (h) Mean (male beagles; 150 mg, IR): 2.8 ± 1.6 h

NC(Cc1c[nH]c2ccccc12)C(=O)NC(Cc1c[nH]c2ccccc12)C(=O)O (stereo not drawn) [Trp-Trp]
Retention Time (h) Mean (female beagles [2]; SCR, 5 mg every thirty minutes): 4.6 ± 1.5 h | Retention Time (h) Mean (female beagles [2]; SCR, 10 mg every thirty minutes): 2.4 ± 1.8 h | Retention Time (h) Mean (female beagles [2]; SCR, 40 mg every thirty minutes): 3.4 ± 1.9 h | Retention Time (h) Mean (male beagles; 200 mg, IR): 3.1 ± 3.9 h and 2.1 ± 1.8 h | Retention Time (h) Mean (male beagles; SCR, 20 mg every thirty minutes): 2.8 ± 0.3 h | Retention Time (h) Mean (female beagles [1]; SCR, 0.5 mg every thirty minutes): 4.6 ± 1.7 h | Retention Time (h) Mean (female beagles [1]; SCR, 2 mg every thirty minutes): 4.2 ± 1.1 h

CCCCC(CC)COC(=O)CC(C(=O)OCC(CC)CCCC)S(=O)(=O)O (stereo not drawn) [Na docusate, reference compound]
Retention Time (h) Mean (male beagles; 200 mg, IR): 2.6 ± 1.4 h

COC(=O)[C@H](Cc1ccccc1)NC(=O)[C@@H](N)CC(=O)O [Aspartame] (H-Asp-Phe-OMe)
Retention Time (h) Mean (female beagles [1]; 200 mg, IR): 3.8 ± 2.3 h

CCCCCCCCCCCCCCCC[n+]1ccccc1.[Cl-] [Cetylpyridinium chloride, reference compound]
Retention Time (h) Mean (female beagles [2]; 20 mg, IR): 4.5 ± 2.6 h | Retention Time (h) Mean (female beagles [2]; 50 mg, IR): 4.0 ± 1.3 h | Retention Time (h) Mean (female beagles [2]; 100 mg, IR): 3.2 ± 0.9 h | Retention Time (h) Mean (female beagles [1]; 5 mg, IR): 4.0 ± 2.8 h | Retention Time (h) Mean (female beagles [1]; 20 mg, IR): 4.45 ± 2.6 h

N[C@@H](Cc1c[nH]c2ccccc12)C(=O)O [tryptophan]
effect on gastric emptying (dogs): slowed gastric emptying
